From patent US20240174624A1, “CHIRAL N-(1,3,4-OXADIAZOLE-2-YL)PHENYL CARBOXYLIC ACID AMIDES AND THEIR USE AS HERBICIDES” (Bayer Aktiengesellschaft, priority 2021, published 2024)

Columns and labels:
ALOMY = test: Pre-emergence herbicidal action; format: in vivo, Alopecurus myosuroides
Excerpt: (§1) Seeds of monocotyledonous and dicotyledonous weed plants and crop plants are laid out in sandy loam soil in wood-fibre pots and covered with soil. The compounds of the invention, formulated in the form of wettable powders (WP) or as emulsion concentrates (EC), are then applied to the surface of the covering soil in the form of an aqueous suspension or emulsion at a water application rate equivalent to 600 to 800 l/ha, with addition of 0.2% wetting agent. After the treatment, the pots are placed in a greenhouse and kept under good growth conditions for the trial plants. The damage to the test plants is scored visually after a test period of 3 weeks by comparison with untreated controls (herbicidal activity in percent (%): 100% activity=the plants have died, 0% activity=like control plants). […] The tables below illustrate, in an illustrative manner, the post-emergence herbicidal action of the compounds of the invention, the herbicidal activity being stated in percent. In the experiments that follow, the herbicidal action of the compounds of the invention and that of the corresponding known racemic compounds closest from WO2012126932 and WO2018202535 were compared under the above-specified conditions by the pre-emergence and post-emergence method. The example numbers given in the tables relate to the compounds disclosed in the respective documents.

AMARE [1] = test: Pre-emergence herbicidal action; format: in vivo, Amaranthus retroflexus; conditions: scored after 3 weeks
Excerpt: as §1, with “percent.” for “percent. In the experiments that follow, the herbicidal action of the compounds of the invention and that of the corresponding known racemic compounds closest from WO2012126932 and WO2018202535 were compared under the above-specified conditions by the pre-emergence and post-emergence method. The example numbers given in the tables relate to the compounds disclosed in the respective documents.”

AVEFA = test: Pre-emergence herbicidal action; format: in vivo, Avena fatua
Excerpt: as §1

ECHCG [2] = test: Pre-emergence herbicidal action; format: in vivo, Echinochloa crus-galli; conditions: scored after 3 weeks
Excerpt: as §1, with “percent.” for “percent. In the experiments that follow, the herbicidal action of the compounds of the invention and that of the corresponding known racemic compounds closest from WO2012126932 and WO2018202535 were compared under the above-specified conditions by the pre-emergence and post-emergence method. The example numbers given in the tables relate to the compounds disclosed in the respective documents.”

MATIN [3] = test: Pre-emergence herbicidal action; format: in vivo, Matricaria inodora; conditions: for Pre-emergence action against MATIN: scored after 3 weeks
Excerpt: as §1

PHBPU [4] = test: Pre-emergence herbicidal action; format: in vivo, Pharbitis purpurea; conditions: 80 g/ha, scored after 3 weeks
Excerpt: as §1, with “percent.” for “percent. In the experiments that follow, the herbicidal action of the compounds of the invention and that of the corresponding known racemic compounds closest from WO2012126932 and WO2018202535 were compared under the above-specified conditions by the pre-emergence and post-emergence method. The example numbers given in the tables relate to the compounds disclosed in the respective documents.”

POLCO = test: Pre-emergence herbicidal action; format: in vivo, Polygonum convolvulus; conditions: 320 g a.i./ha, comparative experiment
Excerpt: as §1

SETVI [5] = test: Pre-emergence herbicidal action; format: in vivo, Setaria viridis; conditions: for Pre-emergence action against SETVI: scored after 3 weeks
Excerpt: as §1

STEME [6] = test: Pre-emergence herbicidal action; format: in vivo, Stellaria media; conditions: comparative experiment
Excerpt: as §1

VERPE [7] = test: Pre-emergence herbicidal action; format: in vivo, Veronica persica; conditions: for Herbicidal action against VERPE: comparative experiment; for Pre-emergence action against VERPE: scored after 3 weeks
Excerpt: as §1

VIOTR [8] = test: Pre-emergence herbicidal action; format: in vivo, Viola tricolor; conditions: 80 g/ha, scored after 3 weeks
Excerpt: as §1, with “percent.” for “percent. In the experiments that follow, the herbicidal action of the compounds of the invention and that of the corresponding known racemic compounds closest from WO2012126932 and WO2018202535 were compared under the above-specified conditions by the pre-emergence and post-emergence method. The example numbers given in the tables relate to the compounds disclosed in the respective documents.”

CYPES [9] = test: Pre-emergence herbicidal action; format: in vivo, Cyperus esculentus; conditions: 20 g a.i./ha, comparative experiment
Excerpt: as §1

ZEAMX = test: Pre-emergence damage to crop plants; format: in vivo, Zea mays; conditions: 320 g a.i./ha, comparative experiment
Excerpt: as §1

AMARE [10] = test: Post-emergence herbicidal action; format: in vivo, Amaranthus retroflexus; conditions: assessed after about 3 weeks
Description: (§2) Seeds of monocotyledonous and dicotyledonous weed and crop plants are laid out in sandy loam soil in wood-fibre pots, covered with soil and cultivated in a greenhouse under good growth conditions. 2 to 3 weeks after sowing, the test plants are treated at the one-leaf stage. The compounds of the invention, formulated in the form of wettable powders (WP) or as emulsion concentrates (EC), are then sprayed onto the green parts of the plants in the form of an aqueous suspension or emulsion at a water application rate equating to 600 to 800 l/ha, with addition of 0.2% wetting agent. After the test plants have been left to stand in the greenhouse under optimal growth conditions for about 3 weeks, the action of the preparations is assessed visually in comparison to untreated controls (herbicidal action in percent (%): 100% activity=the plants have died, 0% activity=like control plants). […] The tables below illustrate, in an illustrative manner, the post-emergence herbicidal action of the compounds of the invention, the herbicidal activity being stated in percent.

ECHCG [11] = test: Post-emergence herbicidal action; format: in vivo, Echinochloa crus-galli; conditions: assessed after about 3 weeks
Description: as §2, with “percent. In the experiments that follow, the herbicidal action of the compounds of the invention and that of the corresponding known racemic compounds closest from WO2012126932 and WO2018202535 were compared under the above-specified conditions by the pre-emergence and post-emergence method. The example numbers given in the tables relate to the compounds disclosed in the respective documents.” for “percent.”

MATIN [12] = test: Post-emergence herbicidal action; format: in vivo, Matricaria inodora; conditions: assessed after about 3 weeks
Description: as §2

PHBPU [13] = test: Post-emergence herbicidal action; format: in vivo, Pharbitis purpurea; conditions: 20 g/ha, assessed after about 3 weeks
Description: as §2

SETVI [14] = test: Post-emergence herbicidal action; format: in vivo, Setaria viridis; conditions: for Post-emergence action against SETVI: assessed after about 3 weeks
Description: as §2, with “percent. In the experiments that follow, the herbicidal action of the compounds of the invention and that of the corresponding known racemic compounds closest from WO2012126932 and WO2018202535 were compared under the above-specified conditions by the pre-emergence and post-emergence method. The example numbers given in the tables relate to the compounds disclosed in the respective documents.” for “percent.”

STEME [15] = test: Post-emergence herbicidal action; format: in vivo, Stellaria media; conditions: 5 g a.i./ha, comparative experiment
Description: as §2, with “percent. In the experiments that follow, the herbicidal action of the compounds of the invention and that of the corresponding known racemic compounds closest from WO2012126932 and WO2018202535 were compared under the above-specified conditions by the pre-emergence and post-emergence method. The example numbers given in the tables relate to the compounds disclosed in the respective documents.” for “percent.”

VERPE [16] = test: Post-emergence herbicidal action; format: in vivo, Veronica persica
Description: as §2, with “percent. In the experiments that follow, the herbicidal action of the compounds of the invention and that of the corresponding known racemic compounds closest from WO2012126932 and WO2018202535 were compared under the above-specified conditions by the pre-emergence and post-emergence method. The example numbers given in the tables relate to the compounds disclosed in the respective documents.” for “percent.”

VIOTR [17] = test: Post-emergence herbicidal action; format: in vivo, Viola tricolor; conditions: assessed after about 3 weeks
Description: as §2, with “percent. In the experiments that follow, the herbicidal action of the compounds of the invention and that of the corresponding known racemic compounds closest from WO2012126932 and WO2018202535 were compared under the above-specified conditions by the pre-emergence and post-emergence method. The example numbers given in the tables relate to the compounds disclosed in the respective documents.” for “percent.”

CYPES [18] = test: Post-emergence herbicidal action; format: in vivo, Cyperus esculentus; conditions: 20 g a.i./ha, comparative experiment
Description: as §2, with “percent. In the experiments that follow, the herbicidal action of the compounds of the invention and that of the corresponding known racemic compounds closest from WO2012126932 and WO2018202535 were compared under the above-specified conditions by the pre-emergence and post-emergence method. […]” for “percent.”

[19] = 20 g a.i./ha, comparative experiment
[20] = 5 g a.i./ha, comparative experiment

## Cc1nnc(NC(=O)c2ccc(C(F)(F)F)c([S+](C)[O-])c2Cl)o1 (stereo in doubt) [Example I-5, 2-chloro-N-(5-methyl-1,3,4-oxadiazol-2-yl)-3-[(S)-methylsulfinyl]-4-(trifluoromethyl)benzamide]
ALOMY; [19]
  Herbicidal action against ALOMY: 60%
ALOMY; 80 g/ha, scored after 3 weeks
  Pre-emergence action against ALOMY: 80%
AMARE [1]; 20 g/ha
  Pre-emergence action against AMARE: 90%
AMARE [1]; 80 g/ha
  Pre-emergence action against AMARE: 100%
AVEFA; [19]
  Herbicidal action against AVEFA: 90%
AVEFA; 80 g/ha, scored after 3 weeks
  Pre-emergence action against AVEFA: 80%
ECHCG [2]; 20 g/ha
  Pre-emergence action against ECHCG: 100%
ECHCG [2]; 80 g/ha
  Pre-emergence action against ECHCG: 100%
MATIN [3]; [19]
  Herbicidal action against MATIN: 90%
MATIN [3]; 20 g/ha
  Pre-emergence action against MATIN: 80%
MATIN [3]; 80 g/ha
  Pre-emergence action against MATIN: 100%
PHBPU [4]
  Pre-emergence action against PHBPU: 100%
POLCO
  Herbicidal action against POLCO: 80%
SETVI [5]; 5 g/ha
  Pre-emergence action against SETVI: 80%
SETVI [5]; [19]
  Herbicidal action against SETVI: 100%
SETVI [5]; 20 g/ha
  Pre-emergence action against SETVI: 100%
SETVI [5]; 80 g/ha
  Pre-emergence action against SETVI: 100%
STEME [6]; 20 g a.i./ha
  Herbicidal action against STEME: 100%
STEME [6]; 80 g a.i./ha
  Herbicidal action against STEME: 100%
STEME [6]; 320 g a.i./ha
  Herbicidal action against STEME: 100%
VERPE [7]; 20 g a.i./ha
  Herbicidal action against VERPE: 30%
VERPE [7]; 20 g/ha
  Pre-emergence action against VERPE: 80%
VERPE [7]; 80 g a.i./ha
  Herbicidal action against VERPE: 100%
VERPE [7]; 80 g/ha
  Pre-emergence action against VERPE: 100%
VIOTR [8]
  Pre-emergence action against VIOTR: 100%
CYPES [9]
  Herbicidal action against CYPES: 90%
ZEAMX
  Herbicidal action against ZEAMX: 40%
AMARE [10]; 5 g/ha
  Post-emergence action against AMARE: 100%
AMARE [10]; 20 g/ha
  Post-emergence action against AMARE: 100%
ECHCG [11]; 5 g/ha
  Post-emergence action against ECHCG: 90%
ECHCG [11]; 20 g/ha
  Post-emergence action against ECHCG: 100%
MATIN [12]; 5 g/ha
  Post-emergence action against MATIN: 80%
MATIN [12]; 20 g/ha
  Post-emergence action against MATIN: 90%
PHBPU [13]
  Post-emergence action against PHBPU: 90%
SETVI [14]; [20]
  Herbicidal action against SETVI: 100%
SETVI [14]; 5 g/ha
  Post-emergence action against SETVI: 80%
SETVI [14]; 20 g/ha
  Post-emergence action against SETVI: 100%
STEME [15]
  Herbicidal action against STEME: 80%
VERPE [16]; [20]
  Herbicidal action against VERPE: 40%
VERPE [16]; 20 g/ha, assessed after about 3 weeks
  Post-emergence action against VERPE: 90%
VIOTR [17]; 5 g/ha
  Post-emergence action against VIOTR: 100%
VIOTR [17]; 20 g/ha
  Post-emergence action against VIOTR: 100%
CYPES [18]
  Herbicidal action against CYPES: 80%
